Experimental findings from publication PMC5464773 (eLife, 2017) are described below.

Assay in all cases: BH3 profiling, mitochondrial depolarization (JC-1) in permeabilized cells
Holding throughout (format): cell-based

The subject of assay [1] is BCR-ABL-expressing B-lineage acute lymphoblastic leukemia cells dependent on Bcl-xL. The conditions noted are these: BH3 profiling fits Bcl-xL, sigmoidal dose-response (variable slope), fit ambiguous. How it is done:
(§1) Cell line identities were confirmed by STR profiling.
(§2) Peptides were titrated by serial dilution in MEB buffer (150 mM Mannitol, 10 mM HEPES-KOH pH 7.5, 50 mM KCl, 0.02 mM EGTA, 0.02 mM EDTA, 0.1% BSA and 5 mM Succinate) containing 20 μg/mL oligomycin, 50 μg/mL digitonin, 2 μM JC-1 and 10 mM 2-mercaptoethanol in 384-well plates. Controls for no depolarization (1% DMSO) and complete depolarization with the mitochondrial oxidative phosphorylation uncoupler FCCP (20 μM) were included for data normalization. […] 15 μL of cell suspension was added to each well containing 15 μL of treatment solution. […] To produce percent depolarization, the area under the resultant curve was calculated and normalized to the assay controls. Peptide titration curves were fit to sigmoidal dose-response curves using Graphpad PRISM seven to obtain EC50 values.

The test system of assay [2] is BCR-ABL-expressing B-lineage acute lymphoblastic leukemia cells dependent on Mcl-1. The settings on record: BH3 profiling fits Mcl-1, sigmoidal dose-response (variable slope). As to the method: as §1, §2
The subject of assay [3] is BCR-ABL-expressing B-lineage acute lymphoblastic leukemia cells dependent on Bfl-1. Also noted: key to Bottom (best-fit value) / Top (best-fit value): % depolarization, normalized to DMSO (0) and FCCP (100) controls. The settings on record: BH3 profiling fits Bfl-1, sigmoidal dose-response (variable slope). How it is done:
as §1, §2

SMILES strings stand for the structures. Peptide text beside a SMILES is read from it. * marks the point of attachment. Acryloyl = C=CC(=O)*

Consider `C=CC(=O)N[C@@H](Cc1c[nH]c2ccccc12)C(=O)N[C@H](C(=O)N[C@@H](CCCNC(=N)N)C(=O)N[C@@H](CCC(=O)O)C(=O)N[C@H](C(=O)N[C@@H](C)C(=O)N[C@@H](C)C(=O)NCC(=O)N[C@@H](CC(C)C)C(=O)N[C@@H](CCCNC(=N)N)C(=O)N[C@@H](CCCNC(=N)N)C(=O)N[C@@H](C)C(=O)N[C@@H](C)C(=O)N[C@@H](CC(=O)O)C(=O)N[C@@H](CC(=O)O)C(=O)N[C@H](C(=O)N[C@@H](CC(N)=O)C(=O)N[C@@H](C)C(=O)N[C@@H](CCC(N)=O)C(=O)N[C@H](C(=O)N[C@@H](CCC(=O)O)C(=O)N[C@@H](CCCNC(=N)N)C(N)=O)C(C)C)C(C)C)[C@@H](C)CC)C(C)C` [FS2gX] (Acryloyl-WVREIAAGLRRAADDVNAQVER-NH2), for which the results for the “Bottom (best-fit value)” value in assay [1] (constraint Bottom < 5), in assay [2] (constrained (0 < Bottom < 5 or Bottom < 5)) and in assay [3] (constraint Bottom < 5) were ~ -1647, -6.58 and -3.828, respectively. Besides, the results for the “Top (best-fit value)” value in assay [1] (constraint Top > 78), in assay [2] (constrained (Top < 100 or Top > 78)) and in assay [3] (constraint Top > 78) were ~ 78, ~ 78 and 78.27, respectively. Further, the results for the “HillSlope (best-fit value)” value in assay [1], in assay [2] and in assay [3] were ~ -0.02698, 0.1762 and 0.7987, respectively. The “LogEC50 (best-fit value)” value in assay [3] (x = Log [Peptide] M, 55-56 Y values analyzed) is -8.01.
